Experimental data taken from patent US5061689A, “Zinc bacitracin containing wound dressing” (Bioderm, Inc., priority 1986, dated 1991).

Legend:
[1] = test system: epidermal wounds; test: Effect of bacitracin zinc impregnated foam dressing on epidermal wound healing (Example I); type: in vivo, white Yorkshire pigs; details: for HT50 (time in days for 50% of wounds to be completely healed): probit analysis
Source text: (§1) To test the effect of bacitracin zinc on epidermal resurfacing, approximately 60 rectangular wounds measuring 7 mm wide, 10 mm long, and 0.5 mm deep were made in each of eighteen white Yorkshire pigs in the paravertebral and thoracic areas with a Castroviejo keratome. The electrokeratome was fitted with a razor blade modified so that the cutting edge was reduced to 7 mm. The wounds were separated from one another by at least 15 mm of normal skin.
On each of the experimental animals, approximately one third of the wounds were assigned to one of three treatment groups: (1) control (no treatment), (2) vehicle alone, (low melting point petrolatum 3.0 g) or (3) bacitracin zinc (either 1%, 2.5%, 5%, 7%, 10% or 20% in 3.0 g). A total of 99 wounds on 3 pigs were treated with each of the varying bacitracin zinc combinations. Vehicle was applied to 594 wounds in 18 animals. The other 594 wounds were the untreated controls.
(§2) The bacitracin zinc was applied in impregnated foam shortly (within 5 minutes) after wounding on day 0 and once daily thereafter for 7 days. In order to rule out the possibility that wounds made in different anatomical regions heal at different rates the regions used for each treatment group varied for each animal.
(§3) Two days after wounding and each day thereafter some of the wounds with surrounding normal skin were excised from each treatment group. The excisions were made with a Castroviejo keratome fitted with a 22 mm blade, set to cut at a depth of 0.7 mm. After incubating the specimens in 2N sodium bromide at 37° C. for three hours, the epidermis was separated from the dermis and the epidermal sheet (22 sq mm) was assessed for re-epithelialization as previously described. Briefly, this method is a macroscopic examination of the separated epidermis for defects. Defects are visualized as holes in the separated epidermal sheet or as a lack of epidermal continuum in the area that contain the wound. The wound is considered re-epithelialized if there are no defects in the epidermis and not re-epithelialized if there are one or more defects.
The time needed for 50% of the wounds in each experimental animal to heal HT50) has been estimated from curves generated by probit analysis of the data presented in Table I. The HT50 values and the relative rate of healing are compared in Table II. Wounds treated with 7% bacitracin zinc healed 46% more rapidly than untreated wounds and 28% faster than wounds treated with the ointment alone. Vehicle treated wounds healed approximately 25% faster than wounds left open to the air.

[2] = test system: deep partial thickness wounds; test: 7% bacitracin zinc ointment with and without polyurethane occlusion, healing of deep partial thickness wounds (Example II); type: in vivo, white Yorkshire pigs
Source text: as §1, §2, §3
Further tests were conducted to determine the effect of bacitracin zinc covered with an occlusive film. The wounds in these were treated according to one of four treatment regiments: (1) untreated; (2) polyurethane film; (3) 7% bacitracin zinc ointment, and (4) 7% bacitracin zinc ointment plus polyurethane film. The methodology employed was substantially the same as in Example I.

[3] = bacitracin zinc as 7% ointment, listed as BAC. ZN

Which “rate of healing Compared with Untreated” value ([1]; 1% bacitracin zinc) does the source give for bacitracin zinc here?
Its value is “+23%”.

And the “rate of healing Compared with Vehicle” value ([1]; 1% bacitracin zinc)?
The value was 0%.

What about the “% of wounds healed” value ([1]; 1% bacitracin zinc in impregnated foam, day 2 after wounding) of the same substance?
Its value is 0%.

And the “% of wounds healed” value ([1]; 1% bacitracin zinc in impregnated foam, day 3 after wounding)?
The value was 0%.

What about the “% of wounds healed” value ([1]; 1% bacitracin zinc in impregnated foam, day 4 after wounding) of the same substance?
The value was 40%.

And the “% of wounds healed” value ([1]; 1% bacitracin zinc in impregnated foam, day 5 after wounding)?
The value was 58%.

And the “% of wounds healed” value ([1]; 1% bacitracin zinc in impregnated foam, day 6 after wounding)?
The value was 95%.

What about the “% of wounds healed” value ([1]; 1% bacitracin zinc in impregnated foam, day 7 after wounding) of the same substance?
The value was 100%.

What about the “HT50 (time in days for 50% of wounds to be completely healed)” value ([1]; 1% bacitracin zinc) of the same substance?
The value was 4.5 days.

And the “rate of healing Compared with Untreated” value ([1]; 2.5% bacitracin zinc)?
Its value is “+25%”.

What about the “rate of healing Compared with Vehicle” value ([1]; 2.5% bacitracin zinc) of the same substance?
The value was 2%.

And the “% of wounds healed” value ([1]; 2.5% bacitracin zinc in impregnated foam, day 2 after wounding)?
Its value is 0%.

What about the “% of wounds healed” value ([1]; 2.5% bacitracin zinc in impregnated foam, day 3 after wounding) of the same substance?
Its value is 0%.

What about the “% of wounds healed” value ([1]; 2.5% bacitracin zinc in impregnated foam, day 4 after wounding) of the same substance?
The value was 36%.

What about the “% of wounds healed” value ([1]; 2.5% bacitracin zinc in impregnated foam, day 5 after wounding) of the same substance?
The value was 60%.

And the “% of wounds healed” value ([1]; 2.5% bacitracin zinc in impregnated foam, day 6 after wounding)?
The value was 96%.

And the “% of wounds healed” value ([1]; 2.5% bacitracin zinc in impregnated foam, day 7 after wounding)?
Its value is 100%.

What about the “HT50 (time in days for 50% of wounds to be completely healed)” value ([1]; 2.5% bacitracin zinc) of the same substance?
Its value is 4.4 days.

And the “rate of healing Compared with Untreated” value ([1]; 5.0% bacitracin zinc)?
The value was “+34%”.

What about the “rate of healing Compared with Vehicle” value ([1]; 5.0% bacitracin zinc) of the same substance?
Its value is 13%.

And the “% of wounds healed” value ([1]; 5.0% bacitracin zinc in impregnated foam, day 2 after wounding)?
Its value is 0%.

What about the “% of wounds healed” value ([1]; 5.0% bacitracin zinc in impregnated foam, day 3 after wounding) of the same substance?
The value was 11%.

What about the “% of wounds healed” value ([1]; 5.0% bacitracin zinc in impregnated foam, day 4 after wounding) of the same substance?
Its value is 54%.

And the “% of wounds healed” value ([1]; 5.0% bacitracin zinc in impregnated foam, day 5 after wounding)?
The value was 77%.

What about the “% of wounds healed” value ([1]; 5.0% bacitracin zinc in impregnated foam, day 6 after wounding) of the same substance?
Its value is 95%.

What about the “% of wounds healed” value ([1]; 5.0% bacitracin zinc in impregnated foam, day 7 after wounding) of the same substance?
The value was 100%.

And the “HT50 (time in days for 50% of wounds to be completely healed)” value ([1]; 5.0% bacitracin zinc)?
Its value is 3.9 days.

And the “rate of wound re-epithelialization compared with both untreated and vehicle treated wounds” value ([1]; 7% bacitracin zinc)?
Its value is “significantly greater”.

And the “rate of healing Compared with Untreated” value ([1]; 7.0% bacitracin zinc)?
The value was “+46%”.

What about the “rate of healing Compared with Vehicle” value ([1]; 7.0% bacitracin zinc) of the same substance?
The value was 28%.

What about the “% of wounds healed” value ([1]; 7.0% bacitracin zinc in impregnated foam, day 2 after wounding) of the same substance?
The value was 0%.

And the “% of wounds healed” value ([1]; 7.0% bacitracin zinc in impregnated foam, day 3 after wounding)?
Its value is 36%.

And the “% of wounds healed” value ([1]; 7.0% bacitracin zinc in impregnated foam, day 4 after wounding)?
The value was 70%.

What about the “% of wounds healed” value ([1]; 7.0% bacitracin zinc in impregnated foam, day 5 after wounding) of the same substance?
The value was 98%.

And the “% of wounds healed” value ([1]; 7.0% bacitracin zinc in impregnated foam, day 6 after wounding)?
Its value is 100%.

What about the “% of wounds healed” value ([1]; 7.0% bacitracin zinc in impregnated foam, day 7 after wounding) of the same substance?
The value was 100%.

And the “rate of healing Compared with Untreated” value ([1]; 7.0% bacitracin zinc, listed as bacitracin zinc)?
The value was 46%.

And the “HT50 (time in days for 50% of wounds to be completely healed)” value ([1]; 7.0% bacitracin zinc)?
The value was 3.2 days.

What about the “rate of healing Compared with Untreated” value ([1]; 10.0% bacitracin zinc) of the same substance?
The value was “+19%”.

And the “rate of healing Compared with Vehicle” value ([1]; 10.0% bacitracin zinc)?
Its value is -6%.

And the “% of wounds healed” value ([1]; 10.0% bacitracin zinc in impregnated foam, day 2 after wounding)?
The value was 0%.

What about the “% of wounds healed” value ([1]; 10.0% bacitracin zinc in impregnated foam, day 3 after wounding) of the same substance?
The value was 2%.

And the “% of wounds healed” value ([1]; 10.0% bacitracin zinc in impregnated foam, day 4 after wounding)?
Its value is 33%.

And the “% of wounds healed” value ([1]; 10.0% bacitracin zinc in impregnated foam, day 5 after wounding)?
The value was 66%.

What about the “% of wounds healed” value ([1]; 10.0% bacitracin zinc in impregnated foam, day 6 after wounding) of the same substance?
The value was 92%.

And the “% of wounds healed” value ([1]; 10.0% bacitracin zinc in impregnated foam, day 7 after wounding)?
The value was 100%.

What about the “HT50 (time in days for 50% of wounds to be completely healed)” value ([1]; 10.0% bacitracin zinc) of the same substance?
Its value is 4.8 days.

What about the “rate of healing Compared with Untreated” value ([1]; 20.0% bacitracin zinc) of the same substance?
Its value is “+19%”.

What about the “rate of healing Compared with Vehicle” value ([1]; 20.0% bacitracin zinc) of the same substance?
The value was -6%.

And the “% of wounds healed” value ([1]; 20.0% bacitracin zinc in impregnated foam, day 2 after wounding)?
Its value is 0%.

And the “% of wounds healed” value ([1]; 20.0% bacitracin zinc in impregnated foam, day 3 after wounding)?
The value was 0%.

And the “% of wounds healed” value ([1]; 20.0% bacitracin zinc in impregnated foam, day 4 after wounding)?
The value was 42%.

What about the “% of wounds healed” value ([1]; 20.0% bacitracin zinc in impregnated foam, day 5 after wounding) of the same substance?
Its value is 58%.

What about the “% of wounds healed” value ([1]; 20.0% bacitracin zinc in impregnated foam, day 6 after wounding) of the same substance?
The value was 96%.

What about the “% of wounds healed” value ([1]; 20.0% bacitracin zinc in impregnated foam, day 7 after wounding) of the same substance?
The value was 100%.

And the “HT50 (time in days for 50% of wounds to be completely healed)” value ([1]; 20.0% bacitracin zinc)?
Its value is 4.8 days.

What about the effect on healing ([1]; levels higher than 5% to 8% bacitracin zinc) of the same substance?
The effect on healing was “tend in inhibit rather than promote healing”.

What about the “rate of wound re-epithelialization compared with ointment vehicle treated wounds” value ([1]; the other concentrations of bacitracin zinc (1%, 2.5%, 5%, 10%, 20%)) of the same substance?
Its value is “no significant difference”.

What about the “HT50 (time in days for 50% of wounds to be completely healed)” value ([2]; bacitracin zinc as 7% ointment) of the same substance?
The value was 4.1 days.

What about the “rate of healing COMPARED WITH PU FILM” value ([2]; bacitracin zinc as 7% ointment) of the same substance?
Its value is “about 4%”.

And the “rate of healing Compared with Untreated” value ([2]; bacitracin zinc as 7% ointment)?
The value was “about 24%”.

And the “rate of healing COMPARED WITH PU FILM” value [2, 3]?
Its value is “+4%”.

And the “rate of healing Compared with Untreated” value [2, 3]?
Its value is “+24%”.

What about the “% of wounds healed” value ([2]; day 2 after wounding, bacitracin zinc as 7% ointment) of the same substance?
Its value is 0%.

And the “% of wounds healed” value ([2]; day 3 after wounding, bacitracin zinc as 7% ointment)?
The value was 19%.

What about the “% of wounds healed” value ([2]; day 4 after wounding, bacitracin zinc as 7% ointment) of the same substance?
Its value is 42%.

What about the “% of wounds healed” value ([2]; day 5 after wounding, bacitracin zinc as 7% ointment) of the same substance?
The value was 77%.

And the “% of wounds healed” value ([2]; day 6 after wounding, bacitracin zinc as 7% ointment)?
The value was 92%.

And the “% of wounds healed” value ([2]; day 7 after wounding, bacitracin zinc as 7% ointment)?
Its value is 100%.

And the “further enhancement in the rate of healing over bacitracin zinc used alone” value ([2]; semipermeable occlusive film applied over the bacitracin zinc impregnated pad)?
Its value is 20%.
